Results reported in US5045319A, “Transdermal dosage unit, system and process” (Rutgers, The State University of New Jersey, priority 1988, dated 1991).

Columns and labels:
[1] = in-vitro skin permeation of propranolol from TMAD (Valia-Chien diffusion cell, with skin); type: in vitro ADME; conditions: delivered from TMAD
Description: (§1) Both in-vitro release and skin permeation studies can then be conducted by mounting the device (with or without skin) onto a Valia-Chien diffusion cell at 37° C. In-vivo studies can be conducted by placing the patch on the pinna (ear) of a rabbit and taking blood samples which can be analyzed for propranolol (results on the attached sheets).
In this case, the enhancer laminate would be fabricated by combining an aliphatic alcohol with adhesive in a 1.25:10 ratio. The enhancer laminate would then be solvent cast and laminated as in Example 1. The devices can then be evaluated in-vitro and in-vivo. (results shown on the attached sheets).

[2] = in-vivo plasma propranolol after topical application of TMAD on inner pinna of rabbit; conditions: FIG. A-7, rabbits
Description: as §1

[3] = in-vitro release of propranolol from multilaminate transdermal device (Valia-Chien diffusion cell, without skin); type: physicochemical; conditions: for RELEASE RATE OF PROPRANOLOL: Example 2, SPE-m-TAD
Description: as §1
The release rate of drug from the SPE-m-TAD can be changed by the alteration of the drug load in the outer drug laminate.

Structure (SMILES): CC(C)NCC(O)COc1cccc2ccccc12 (racemic) [propranolol, Propranolol]
- enhancement in skin permeation rate of propranolol by alkyl alcohols ([1]; FIG. A-4, dependence on alkyl chain length n of alcohols): The rate of skin permeation increases as increasing the alkyl chain length of the alcohols and reaches the maximum level at n=12~14
- enhancement in skin permeation rate of propranolol by alkanoic acids ([1]; FIG. A-5, dependence on alkyl chain length n of acids): The rate of skin permeation shows a sinoidal dependence on the alkyl chain length of the acids and with the maximum rates at n=3 and 16
- enhancement in skin permeation rate of propranolol by esters of Lauric Acid (n=12) ([1]; FIG. A-6, dependence on alkyl chain length n of esters): The rate of skin permeation increases first and then levels off as increasging the alkyl chain length of the esters and reaches the maximum level at n=2
- plasma concentration profiles of propranolol ([2]; 24-hr topical application of TMAD on inner pinna ear): long-acting plasma concentration profiles
- systemic bioavailability of propranolol, as shown by plasma levels ([2]; 24-hr topical application of TMAD with various skin permeation enhancers): improved the systemic bioavailability, as shown by elevated constant plasma levels
- RELEASE RATE OF PROPRANOLOL ([3]; propranolol drug load in outer drug laminate 3%): 48.1 ug cm^-2 hr^-1
- RELEASE RATE OF PROPRANOLOL ([3]; propranolol drug load in outer drug laminate 5%): 49.9 ug cm^-2 hr^-1
- RELEASE RATE OF PROPRANOLOL ([3]; propranolol drug load in outer drug laminate 7%): 52.2 ug cm^-2 hr^-1
- RELEASE RATE OF PROPRANOLOL ([3]; propranolol drug load in outer drug laminate 20%): 59.1 ug cm^-2 hr^-1
- drug release kinetics ([3]; FIG. A-2, only extremely small particle size (1.5 μm) propranolol crystals in outer laminate layer): Device-controlled zero-order drug release kinetics was achieved
- zero-order release profile of propranolol from TMAD, effect of skin permeation enhancers ([3]; FIG. A-3, various skin permeation enhancers in contact adhesive polymer coating): did not affect the zero-order release profile
- overall release of propranolol from the device ([3]; SPE-m-TAD, decreasing drug load in outer drug laminate, particle size 1.5 microns): can be reduced, while still maintaining zero-order release kinetics
